Laboratory results published in patent publication US20110269811A1, “INHIBITORS OF SEMICARBAZIDE-SENSITIVE AMINE OXIDASE (SSAO) AND VAP-1 MEDIATED ADHESION USEFUL FOR TREATMENT AND PREVENTION OF DISEASES” (priority 2006, published 2011).
Structures can show the parent of a compound that is named as a salt.

Experiments:
[1] = target: T1, Recombinant human MAO-A (Homo sapiens, UniProt P21397); experiment: MAO-A activity, colorimetric method, tyramine substrate; type: biochemical; details: for Specificity of SSAO on MAO-A: ratio of IC50 for MAO-A to IC50 for SSAO; for IC50: recombinant human MAO-A
T1 construct: purchased BD Biosciences (MA, USA)
T1 sequence (P21397 1-527): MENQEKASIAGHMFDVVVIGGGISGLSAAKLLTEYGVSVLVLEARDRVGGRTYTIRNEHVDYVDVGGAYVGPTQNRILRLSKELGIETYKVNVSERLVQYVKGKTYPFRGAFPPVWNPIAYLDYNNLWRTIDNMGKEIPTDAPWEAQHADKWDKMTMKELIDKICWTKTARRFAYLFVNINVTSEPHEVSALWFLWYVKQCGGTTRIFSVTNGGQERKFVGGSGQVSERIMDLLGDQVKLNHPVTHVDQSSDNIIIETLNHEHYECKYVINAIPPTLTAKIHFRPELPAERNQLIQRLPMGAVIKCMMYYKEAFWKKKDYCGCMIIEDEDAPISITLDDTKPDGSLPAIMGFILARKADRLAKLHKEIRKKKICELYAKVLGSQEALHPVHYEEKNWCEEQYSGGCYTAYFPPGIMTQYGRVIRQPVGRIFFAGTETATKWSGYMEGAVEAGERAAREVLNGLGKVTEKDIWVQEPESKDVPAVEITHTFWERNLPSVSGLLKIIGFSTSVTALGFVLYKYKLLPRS
Experimental: The specificities of the different SSAO inhibitors was tested by determining their abilities to inhibit MAO-A and MAO-B activities in vitro. Recombinant human MAO-A and human MAO-B enzymes were obtained from BD Biosciences (MA, USA). MAO activity was measured using the colorimetric method essentially as described (Holt, A. et al. (1997) Anal. Biochem. 244: 384). A pre-determined amount of inhibitor diluted in 0.2M potassium phosphate buffer, pH 7.6, was added to each well, if required. The amount of inhibitor varied in each assay but was generally at a final concentration of between 1 nM and 1 mM. Controls lacked inhibitor. The following agents were then added to a final reaction volume of 200 μL in 0.2M potassium phosphate buffer, pH 7.6: 0.04 mg/ml of MAO-A or 0.07 mg/ml MAO-B enzyme, 15 μL of 10 mM tyramine substrate (for MAO-A), or 15 μL 100 mM benzylamine substrate (for MAO-B), and 50 μL of freshly made chromogenic solution. The chromogenic solution contained 750 μM vanillic acid (Sigma#V-2250), 400 μM 4-aminoantipyrine (Sigma #A-4328) and 12 U/mL horseradish peroxidase (Sigma #P-8250) in order to cause a change of 0.5 OD A490 nm/h. This was within the linear response range for the assay. The plates were incubated for 60 min at 37° C. The increase in absorbance, reflecting MAO activity, was measured at 490 nm using microplate spectrophotometer (Power Wave 40, Bio-Tek Inst.). Inhibition was presented as percent inhibition compared to control after correcting for background absorbance and IC50 values calculated using GraphPad Prism software. Clorgyline and pargyline (inhibitors of MAO-A and -B, respectively) at 1 μM, were added to some wells as positive controls for MAO inhibition. […] The compounds described in the present invention are therefore expected to have therapeutic utility in the treatment of diseases and conditions in which the activity of SSAO/VAP-1 plays a role, that is, in SSAO/VAP-1 mediated diseases and conditions.

[2] = target: T2, human MAO-B (Homo sapiens, UniProt P27338); experiment: MAO-B activity, colorimetric method, benzylamine substrate; type: biochemical; details: for Specificity of SSAO on MAO-B: ratio of IC50 for MAO-B to IC50 for SSAO; for IC50: recombinant human MAO-B
T2 construct: purchased BD Biosciences (MA, USA)
T2 sequence (P27338 1-520): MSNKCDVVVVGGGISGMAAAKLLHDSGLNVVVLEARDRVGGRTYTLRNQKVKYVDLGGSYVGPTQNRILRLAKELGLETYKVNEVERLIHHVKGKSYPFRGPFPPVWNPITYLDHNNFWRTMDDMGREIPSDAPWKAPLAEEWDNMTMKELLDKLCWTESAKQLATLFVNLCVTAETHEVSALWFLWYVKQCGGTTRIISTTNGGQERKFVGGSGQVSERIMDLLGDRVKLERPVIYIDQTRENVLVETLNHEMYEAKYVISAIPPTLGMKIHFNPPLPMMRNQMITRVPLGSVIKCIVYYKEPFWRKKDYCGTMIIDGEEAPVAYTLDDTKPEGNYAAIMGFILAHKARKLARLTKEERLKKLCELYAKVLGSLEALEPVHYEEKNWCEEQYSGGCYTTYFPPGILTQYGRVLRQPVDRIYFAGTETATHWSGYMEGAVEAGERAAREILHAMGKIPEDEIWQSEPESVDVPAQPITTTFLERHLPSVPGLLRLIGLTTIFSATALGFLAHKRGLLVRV
Experimental: The specificities of the different SSAO inhibitors was tested by determining their abilities to inhibit MAO-A and MAO-B activities in vitro. Recombinant human MAO-A and human MAO-B enzymes were obtained from BD Biosciences (MA, USA). MAO activity was measured using the colorimetric method essentially as described (Holt, A. et al. (1997) Anal. Biochem. 244: 384). A pre-determined amount of inhibitor diluted in 0.2M potassium phosphate buffer, pH 7.6, was added to each well, if required. […] Controls lacked inhibitor. The following agents were then added to a final reaction volume of 200 μL in 0.2M potassium phosphate buffer, pH 7.6: 0.04 mg/ml of MAO-A or 0.07 mg/ml MAO-B enzyme, 15 μL of 10 mM tyramine substrate (for MAO-A), or 15 μL 100 mM benzylamine substrate (for MAO-B), and 50 μL of freshly made chromogenic solution. The chromogenic solution contained 750 μM vanillic acid (Sigma#V-2250), 400 μM 4-aminoantipyrine (Sigma #A-4328) and 12 U/mL horseradish peroxidase (Sigma #P-8250) in order to cause a change of 0.5 OD A490 nm/h. […] The plates were incubated for 60 min at 37° C. The increase in absorbance, reflecting MAO activity, was measured at 490 nm using microplate spectrophotometer (Power Wave 40, Bio-Tek Inst.). Inhibition was presented as percent inhibition compared to control after correcting for background absorbance and IC50 values calculated using GraphPad Prism software. Clorgyline and pargyline (inhibitors of MAO-A and -B, respectively) at 1 μM, were added to some wells as positive controls for MAO inhibition.

SMILES	Specificity of SSAO on MAO-A [1]	IC50 [1] [µM]	Specificity of SSAO on MAO-B [2]	IC50 [2] [µM]	melting point [°C]
Cl.NC/C(=C\F)Cc1ccc(Cl)cc1 [Compound I-3-Z, (Z)-2-(4-Chlorobenzyl)-3-fluoro-allylamine hydrochloride]	3250	91	3	0.084	145 to 146
COc1ccc(CC/C(=C/F)CN)cc1.Cl [Compound I-102-Z, (Z)-3-Fluoro-2-[2-(4-methoxyphenyl)-ethyl]-allylamine hydrochloride]	21	0.62	19	0.56	94 to 95
COc1cccc(C/C(C)=C(/F)CN)c1 [II-18-E, hydrochloride]	>3448	> 1000	>3448	> 1000	–
Cl.NC/C(F)=C\Cc1ccccc1 [II-9-E, (E)-2-Fluoro-4-phenyl-2-butenylamine hydrochloride]	12120	1200	12120	1200	120 to 121
Cl.NC/C(F)=C\Cc1cccc(F)c1 [II-7-E, (E)-2-Fluoro-4-(3-fluorophenyl)-2-butenylamine hydrochloride]	4545	–	4545	–	175 to 176
CC(C)Oc1ccc(C/C(=C/F)CN)cc1.Cl [Compound I-8-Z, (Z)-3-Fluoro-2-(4-isopropoxybenzyl)allylamine hydrochloride]	7000	35	5400	27	147 to 148
Cl.NC/C(F)=C\Cc1cccc(SC(F)(F)F)c1 [II-15-E, (E)-2-Fluoro-4-(3-trifluoromethylthiophenyl)-2-butenylamine hydrochloride]	>34780	> 800	>34780	> 800	188 to 189
Cl.NC/C(F)=C\Cc1cccc(OC(F)(F)F)c1 [II-10-E, (E)-2-Fluoro-4-(3-trifluoromethoxyphenyl)-2-butenylamine hydrochloride]	48330	870	53670	966	174 to 175
COc1ccc(C/C(=C/F)CN)cc1.Cl [Compound I-1-Z, (Z)-3-Fluoro-2-(4-methoxybenzyl)-allylamine hydrochloride]	4700	85	88	1.6	–
NC/C(=C\F)CCc1ccc(F)cc1 [Compound I-99-Z, (Z)-2-(fluoromethylene)-4-(4-fluorophenyl)butan-1-amine]	177	23	2.1	0.27	–
NC/C(F)=C\Cc1cc(F)cc(C(F)(F)F)c1 [II-1-E, (E)-2-Fluoro-4-(3-fluoro-5-trifluoromethylphenyl)-but-2-enylamine]	>2400	> 87	>2400	> 87	–
CN(C)c1cccc(C/C=C(/F)CN)c1.Cl [II-11-E, (E)-2-Fluoro-4-(3-dimethylaminophenyl)-2-butenylamine hydrochloride]	2600	286	7272	–	–
COc1cccc(OC/C=C(/F)CN)c1 [II-19-E, (E)-2-fluoro-4-(3-methoxyphenoxy)but-2-en-1-amine]	>6250	> 1000	5312	850	–

Continued, values first:

Specificity of SSAO on MAO-A [1]	IC50 [1] [µM]	Specificity of SSAO on MAO-B [2]	IC50 [2] [µM]	melting point [°C]	SMILES
11250	90	1250	9.6	175 to 176	CC(C)c1ccc(C/C(=C/F)CN)cc1.Cl [Compound I-14-Z, (Z)-3-Fluoro-2-(4-isopropylbenzyl)allylamine hydrochloride]
2643	74	64.3	1.8	119 to 120.5	COc1cccc(C/C(=C/F)CN)c1.Cl [Compound I-5-Z, (Z)-3-Fluoro-2-(3-methoxybenzyl)allylamine hydrochloride]
1360	34	27.6	0.69	120.5 to 121.5	Cl.NC/C(=C\F)Cc1cccc(F)c1 [Compound I-19-Z, (Z)-3-Fluoro-2-(3-fluorobenzyl)allylamine hydrochloride]
4211	48	3070	35	–	CC(C)Oc1ccc(C/C(=C\F)CN)cc1 [Compound I-8-E, (E)-3-Fluoro-2-(4-isopropoxybenzyl)allylamine hydrochloride]
>3333	> 1000	>3333	> 1000	213 to 214	Cl.NC/C(F)=C\Cc1ccc(F)cc1 [II-5-E, (E)-2-Fluoro-4-(4-fluorophenyl)-2-butenylamine hydrochloride]
7900	79	1200	12	153 to 154	CCOc1ccc(C/C(=C/F)CN)cc1.Cl [Compound I-2-Z, (Z)-3-Fluoro-2-(4-ethoxybenzyl)-allylamine hydrochloride]
